Experiment [1] relates to corneal neovascularization. Put plainly: Off-label topical AVASTIN for corneal neovascularization using the scleral lens drug delivery system. In kind it is in vivo. From the text: This study using AVASTIN® off-label, topically, to treat corneal neovascularization was repeated using the scleral lens drug delivery system. […] This therapeutic effect was achieved without BAK. Instead, the expanded pre-corneal tear film of the scleral lens drug delivery system provided adequate bioavailability of the drug without exposing the cornea to BAK.

For experiment [2], the system named is corneal neovascularization. To be noted: solution of 1% AVASTIN and 0.01% BAK, one drop, four times per day for at least thirty days, topical drops; cited from earlier work.

The source of these data is patent US20080286338A1, “Drug delivery system with scleral lens” (Boston Foundation for Sight, priority 2007, published 2008).

Read-outs that look alike come from different tables or passages of the source.

bevacizumab [AVASTIN®]: the “therapeutic effect on corneal neovascularization” value in experiment [1] (one drop of 1% AVASTIN added to expanded pre-corneal tear film of artificial tears in scleral lens twice per day, without BAK, by thirty days, continued benefit over subsequent sixty days) is “achieved a therapeutic effect by thirty days with continued benefit over the subsequent sixty days”; in experiment [2], “Therapeutic effect was reported”. Besides, in experiment [1] (scleral lens drug delivery system), the “regression of corneal neovascularization (clinical photos, FIG. 5)” value was “regression of corneal neovascularization”.
